Assay results: PubChem BioAssay AID1963981 (Molecular Pharmacology Branch, DTP, NCI, 2024)

Tested on: 354836-022-R-J1-PDC multicell spheroid viability
Assay: Anticancer human tumor 354836-022-R-J1-PDC patient-derived head and neck squamous cell carcinoma cell line growth inhibition [PI3K]
Conditions: for IC50: curve of first compound; for viability, T/C: stronger effect = lower value
Source text: Combinatorial screen of targeted agents with the PI3K inhibitors inavolisib, alpelisib, duvelisib, and copanlisib in multi-cell type tumor spheroids
A high-throughput screen of multi-cell type tumor spheroids was designed to identify active combinations of targeted small molecules and PI3K pathway inhibitors. Complex spheroids include a stromal component modeled by human endothelial cells (HUVEC) and fibroblasts modeled by human mesenchymal stem cells (MSCs). The concentration ranges selected for each drug and investigational agent were based upon clinically achievable concentrations if the clinical Cmax of the agent was known.
Compounds. The drugs and investigational agents: inavolisib (NSC800729), alpelisib (NSC765974), duvelisib (NSC772469), copanlisib (NSC816437), ipatasertib (NSC767898), afuresertib (NSC778305), talazoparib (NSC767125), sapanisertib (NSC764658), selumetinib (NSC741078), tovorafenib (DAY101, NSC766906), vemurafenib (NSC761431), ravoxertinib (NSC781343), sotorasib (NSC818433), MRTX1133 (NSC 836407), abemaciclib (NSC 768073), palbociclib (NSC758247), venetoclax (NSC 766270), SY5609 (NSC837396), enzalutamide (NSC755605), and darolutamide (NSC825331), were obtained from the National Cancer Institute (NCI) Developmental Therapeutics Program Chemical Repository. The FDA-approved anticancer drug set is available from the NCI Developmental Therapeutics Program. […] The stock solutions were prepared in dimethyl sulfoxide (DMSO, Sigma-Aldrich, St. Louis, MO, cat. D2650) at 800-fold the tested concentration and stored at -70 degrees C prior to their use. All drugs and investigational agents were tested over a range starting from a high concentration at or near the clinical Cmax and decreasing in half-log increments. If the clinical Cmax for an agent had not been determined, the highest concentration tested was 10 microM.
Cell Culture. All cells were maintained in an incubator at 37 degrees C and 5% CO2 with 95% humidity. The PDC lines were cultured according to standard operating procedures established by the NCI PDMR (https://pdmr.cancer.gov/sops/default.htm). All PDCs were thawed and cultured in Matrigel-coated flasks prepared with a working solution of 1X Ham's F-12 nutrient mix, without supplementation (Invitrogen, Waltham, MA, cat. 11765054), 100 U/mL penicillin-streptomycin (Invitrogen, cat. 15140122), and 2.5% Matrigel (Corning Inc., Corning, NY, cat. 354248) for the first three passages. The 354836-022-R-J1-PDC, 475296-252-R-J1-PDC, and 997726-040-R-J2-PDC lines were cultured in 6A media, which includes advanced DMEM/F-12 (Thermo Fisher Scientific, cat. 12634028), 10 mM HEPES (Thermo Fisher Scientific, cat. 15630080), 1X GlutaMAX supplement (Thermo Fisher Scientific, cat. 35050061), 0.1 mg/mL primocin (InvivoGen, San Diego, CA, cat. ant-pm-2), 10% defined fetal bovine serum, heat inactivated (HyClone Laboratories Inc., Logan, UT, cat. SH30070.03HI), 50% L-WRN conditioned media (ATCC, cat. CRL-3276), 1.25 mM N-Acetyl-L-cysteine (Sigma-Aldrich, cat. A9165), 10 mM nicotinamide (Sigma-Aldrich, cat. N0636), 1X B-27 supplement (Thermo Fisher Scientific, cat. 17504044), 1X N-2 supplement (Thermo Fisher Scientific, cat. 17502048), and 10 microM Y-27632 dihydrochloride (Tocris Bioscience, Bristol, United Kingdom, cat. 1254). The 624824-186-R-J2-PDC line was cultured in 6C/Colon 1B media, which includes all 6A media components plus 50 ng/mL human EGF recombinant protein (Thermo Fisher Scientific, cat. PHG0311). […]

[1] = second compound 0.00316 µM, first compound 0.0316 µM
[2] = second compound 0.00316 µM, first compound 0.1 µM
[3] = second compound 0.00316 µM, first compound 0.316 µM
[4] = second compound 0.00316 µM, first compound 1 µM
[5] = second compound 0.00316 µM, first compound 3.16 µM
[6] = second compound 0.00316 µM, first compound 10 µM
[7] = second compound 0.01 µM, first compound 0.0316 µM
[8] = second compound 0.01 µM, first compound 0.1 µM
[9] = second compound 0.01 µM, first compound 0.316 µM
[10] = second compound 0.01 µM, first compound 1 µM
[11] = second compound 0.01 µM, first compound 3.16 µM
[12] = second compound 0.01 µM, first compound 10 µM
[13] = second compound 0.0316 µM, first compound 0.0316 µM
[14] = second compound 0.0316 µM, first compound 0.1 µM
[15] = second compound 0.0316 µM, first compound 0.316 µM
[16] = second compound 0.0316 µM, first compound 1 µM
[17] = second compound 0.0316 µM, first compound 3.16 µM
[18] = second compound 0.0316 µM, first compound 10 µM
[19] = second compound 0.1 µM, first compound 0.0316 µM
[20] = second compound 0.1 µM, first compound 0.1 µM
[21] = second compound 0.1 µM, first compound 0.316 µM
[22] = second compound 0.1 µM, first compound 1 µM
[23] = second compound 0.1 µM, first compound 3.16 µM
[24] = second compound 0.1 µM, first compound 10 µM
[25] = second compound 0.316 µM, first compound 0.0316 µM
[26] = second compound 0.316 µM, first compound 0.1 µM
[27] = second compound 0.316 µM, first compound 0.316 µM
[28] = second compound 0.316 µM, first compound 1 µM
[29] = second compound 0.316 µM, first compound 3.16 µM
[30] = second compound 0.316 µM, first compound 10 µM
[31] = second compound 1 µM, first compound 0.0316 µM
[32] = second compound 1 µM, first compound 0.1 µM
[33] = second compound 1 µM, first compound 0.316 µM
[34] = second compound 1 µM, first compound 1 µM
[35] = second compound 1 µM, first compound 3.16 µM
[36] = second compound 1 µM, first compound 10 µM
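Note: spheroids exposed to agents for seven days before the viability read.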

## CC1(C)CCC(CN2CCN(c3ccc(C(=O)NS(=O)(=O)c4ccc(NCC5CCOCC5)c([N+](=O)[O-])c4)c(Oc4cnc5[nH]ccc5c4)c3)CC2)=C(c2ccc(Cl)cc2)C1 + CC(Nc1ccc2c(c1)OCCn1cc(N3C(=O)OCC3C(F)F)nc1-2)C(N)=O
Second compound 0.00316 µM
  IC50: 4.39 µM
Second compound 0.01 µM
  IC50: 4 µM
Second compound 0.0316 µM
  IC50: 3.5 µM
Second compound 0.1 µM
  IC50: 4.25 µM
Second compound 0.316 µM
  IC50: 3.35 µM
Second compound 1 µM
  IC50: 2.32 µM
[1]
  viability, T/C: 96.5%
[2]
  viability, T/C: 96.9%
[3]
  viability, T/C: 87.7%
[4]
  viability, T/C: 70.5%
[5]
  viability, T/C: 74.6%
[6]
  viability, T/C: 8.4%
[7]
  viability, T/C: 106%
[8]
  viability, T/C: 91%
[9]
  viability, T/C: 95.2%
[10]
  viability, T/C: 81.1%
[11]
  viability, T/C: 62.8%
[12]
  viability, T/C: 9.3%
[13]
  viability, T/C: 89.1%
[14]
  viability, T/C: 103%
[15]
  viability, T/C: 92.3%
[16]
  viability, T/C: 99.5%
[17]
  viability, T/C: 54%
[18]
  viability, T/C: 8.28%
[19]
  viability, T/C: 81.4%
[20]
  viability, T/C: 81.6%
[21]
  viability, T/C: 94.2%
[22]
  viability, T/C: 85.5%
[23]
  viability, T/C: 63.4%
[24]
  viability, T/C: 11.4%
[25]
  viability, T/C: 71%
[26]
  viability, T/C: 69.2%
[27]
  viability, T/C: 72.8%
[28]
  viability, T/C: 69.8%
[29]
  viability, T/C: 52%
[30]
  viability, T/C: 10.8%
[31]
  viability, T/C: 62%
[32]
  viability, T/C: 56.2%
[33]
  viability, T/C: 50.2%
[34]
  viability, T/C: 64.7%
[35]
  viability, T/C: 47%
[36]
  viability, T/C: 10.2%

## C[C@@H](NC(=O)c1ncnc(N)c1Cl)c1ncc(C(=O)Nc2cc(C(F)(F)F)c(Cl)cn2)s1 + CC(Nc1ccc2c(c1)OCCn1cc(N3C(=O)OCC3C(F)F)nc1-2)C(N)=O
Second compound 0.00316 µM
  IC50: > 10 µM
Second compound 0.01 µM
  IC50: > 10 µM
Second compound 0.0316 µM
  IC50: > 10 µM
Second compound 0.1 µM
  IC50: > 10 µM
Second compound 0.316 µM
  IC50: > 10 µM
Second compound 1 µM
  IC50: > 10 µM
[1]
  viability, T/C: 98.4%
[2]
  viability, T/C: 92.4%
[3]
  viability, T/C: 103%
[4]
  viability, T/C: 109%
[5]
  viability, T/C: 107%
[6]
  viability, T/C: 67.5%
[7]
  viability, T/C: 108%
[8]
  viability, T/C: 90.9%
[9]
  viability, T/C: 91.4%
[10]
  viability, T/C: 104%
[11]
  viability, T/C: 110%
[12]
  viability, T/C: 64.1%
[13]
  viability, T/C: 92.1%
[14]
  viability, T/C: 93.1%
[15]
  viability, T/C: 102%
[16]
  viability, T/C: 111%
[17]
  viability, T/C: 103%
[18]
  viability, T/C: 71.9%
[19]
  viability, T/C: 82.2%
[20]
  viability, T/C: 93.8%
[21]
  viability, T/C: 94.9%
[22]
  viability, T/C: 92.3%
[23]
  viability, T/C: 88.5%
[24]
  viability, T/C: 71.6%
[25]
  viability, T/C: 74.4%
[26]
  viability, T/C: 75.9%
[27]
  viability, T/C: 82.9%
[28]
  viability, T/C: 84.6%
[29]
  viability, T/C: 88.1%
[30]
  viability, T/C: 58.1%
[31]
  viability, T/C: 63%
[32]
  viability, T/C: 62.2%
[33]
  viability, T/C: 62.9%
[34]
  viability, T/C: 65.2%
[35]
  viability, T/C: 74.5%
[36]
  viability, T/C: 53.6%
